US20200375987A1, “METALLO-BETA-LACTAMASE INHIBITORS AND METHODS OF USE THEREOF” (priority 2018, published 2020)

How the values were obtained:
[1] = biological target: NDM-1 (Klebsiella pneumoniae, UniProt C7C422); experiment: Enzyme activity: determination of IC50, fluorescence assay with CCF2-FA substrate (NDM-1); format: biochemical; details: 1 pM enzyme, 1.25 μM CCF2-FA, 2 hours at 25° C.; read-out: NDM1 IC50
Protocol: (§1) The Class B enzyme activities were measured in the presence of the test inhibitor in a fluorescence assay against a commercially available substrate consisting of a cephalosporin core linking 7-hydroxycoumarin to fluorescein (CCF2-FA). The enzyme (NDM-1, IMP-1 or VIM-1) and the substrate were diluted in 100 mM KH2PO4 buffer (pH 7) containing 0.005% Tween-20 and 10 μM ZnSO4. In the assay, the final concentration of enzyme was 1 pM, 2 pM and 30 pM for NDM-1, IMP-1 and VIM-1, respectively, and the final concentration of CCF2-FA was 1.25 μM. The test inhibitor was dissolved in dimethylsulfoxide and diluted 1:50 in the assay, resulting in a final concentration range of 20 μM to 0.00063 μM. In a 384-well microplate, the test inhibitor was incubated with the metallo-β-lactamase enzyme and the substrate for 2 hours at 25° C. Fluorescence at 460 nm following excitation at 405 nm was measured. The IC50 value was determined from semi-logarithmic plots of enzyme inhibition versus inhibitor concentration, with a curve generated using a 4-parameter fit.

[2] = biological target: IMP-1 (Serratia marcescens, UniProt P52699); experiment: Enzyme activity: determination of IC50, fluorescence assay with CCF2-FA substrate (IMP-1); format: biochemical; details: 2 pM enzyme, 1.25 μM CCF2-FA, 2 hours at 25° C.; read-out: IMP1 IC50
IMP-1, sequence (P52699 19-246, looked up, species assumed): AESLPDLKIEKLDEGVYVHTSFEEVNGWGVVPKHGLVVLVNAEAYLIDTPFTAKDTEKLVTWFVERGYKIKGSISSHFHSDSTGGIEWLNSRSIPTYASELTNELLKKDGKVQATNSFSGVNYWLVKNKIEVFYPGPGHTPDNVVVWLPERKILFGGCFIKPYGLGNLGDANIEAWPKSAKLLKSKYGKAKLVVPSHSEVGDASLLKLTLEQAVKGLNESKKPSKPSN
Protocol: as §1

[3] = biological target: VIM-1 (Pseudomonas aeruginosa, UniProt A0A0F7KYQ8); experiment: Enzyme activity: determination of IC50, fluorescence assay with CCF2-FA substrate (VIM-1); format: biochemical; details: 30 pM enzyme, 1.25 μM CCF2-FA, 2 hours at 25° C.; read-out: VIM1 IC50
Protocol: as §1

[4] = biological target: VIM-2 (Escherichia coli, UniProt Q5U7L7); experiment: Enzyme activity: determination of IC50 (VIM-2); format: biochemical; details: read-out: VIM2 IC50
[5] = system: Escherichia coli expressing NDM-1 (CLB30016); experiment: Antibiotic potentiation activity: synergistic concentration (MITC95) with imipenem; format: cell-based; details: imipenem 1 μg/mL; lowest concentration inhibiting 95% of growth; 35° C., 22-24 hours
Protocol: (§2) The bacterial strains tested included the clinical strains Escherichia coli expressing NDM-1 (CLB30005, CLB30016), Serratia marcescens expressing IMP-1 (CL5741), and Klebsiella pneumoniae expressing VIM-1 (IHMA599644). Inhibitor activity was measured in the presence and absence of imipenem in a 384-well microplate.
(§3) The clinical strains CLB30016, CL5741 and IHMA599644 were grown on trypticase soy agar containing 5% sheep's blood. The bacteria on agar plates were incubated at 35° C. with humidity overnight. The following day, individual colonies from each clinical strain were picked and resuspended in 5 mL saline to attain an OD600 of 0.14, 0.11, 0.15 and 0.13, for CLB30016, CL5741 and IHMA599644, respectively. These were further diluted 1:100 into 1.1× CAMHB and used to inoculate the test wells as described below.
(§4) Imipenem in 10 mM 3-(N-morpholino)propanesulfonic acid (MOPS, pH 7) was stored in single use aliquots at −80° C. […] On the day of the assay, 4 μl of antibiotic was added to 45 μl of bacteria followed by 1 μl of test compound and mixed by pipetting and with an orbital shaker. The concentration of antibiotic used in the assay was 1 μg/mL. Microplates were covered and incubated at 35° C. for 22 hours to 24 hours. At the end of the incubation, absorbance was determined using a spectrophotometer. The synergistic concentration of MBLI was determined by identifying the lowest concentration of test compound in the presence of a given concentration of antibiotic that was required to inhibit 95% of the growth of the bacteria. The results for Examples 1-209 are reported in Table 1, expressed as the concentration of compound that potentiated the action of antibiotic (imipenem) affecting 95% inhibition of bacterial growth (MITC95).

[6] = system: Klebsiella pneumoniae expressing VIM-1 (IHMA599644); experiment: as above; format: cell-based; details: imipenem 1 μg/mL; lowest concentration inhibiting 95% of growth; 35° C., 22-24 hours
Protocol: as §2, §3, §4

[7] = system: Serratia marcescens expressing IMP-1 (CL5741); experiment: as above; format: cell-based; details: imipenem 1 μg/mL; lowest concentration inhibiting 95% of growth; 35° C., 22-24 hours
Protocol: as §2, §3, §4

[8] = system: P. aeruginosa MB9798 (efflux WT, IMP-1); experiment: Efflux: concentration of MBL inhibitor restoring susceptibility to imipenem (MITC95), efflux+ strain; format: cell-based, Pseudomonas aeruginosa; details: imipenem at 2 μg/mL in the presence of a class A, C, D serine β-lactamase inhibitor closely related to relebactam
Description: (§5) In order to assess the contribution of efflux to lack of whole cell inhibition of metallo-beta-lactamase inhibitors of formula I, tool strains were constructed. The strain background is Pseudomonas aeruginosa PAO1. A wild-type (MB5919) and an isogenic strain in which multiple efflux pumps have been disrupted genetically were used. The MBL IMP-1, obtained from a clinical isolate was introduced into the strain pair by the following process:
(§6) Plasmid DNA (encoding IMP-1) was extracted from CL 5673 (IMP-1, P. aeruginosa clinical strain) by standard techniques. The plasmid DNA was transformed into parental MB5919 (oprD+, efflux+, inducible AmpC) and MB5890 (oprD+, efflux−, inducible AmpC) isogenic strains by electroporation. These transformed strains were plated onto cation-adjusted Muller-Hinton agar plates containing ceftazidime at 32 μg/mL (MB5919) and 16 μg/mL (MB5890) to select for those cells in which the IMP-1-expressing plasmid was introduced successfully, resulting in resistance to ceftazidime. Agarose-gel electrophoresis of PCR product for IMP-1 from the successful transformants was used to compare to control and to the original strain from which the plasmid was obtained, confirming transfer of the IMP-1 gene (data not shown).
(§7) The strain set was then used as a pair to determine the effect of metallo-β-lactamase inhibitors of Formula Ion the MIC of imipenem and/or ceftazidime. A fixed concentration of antibiotic is included in standard microbroth MIC tests, usually at the CLSI breakpoint concentration. A fixed amount of a class A/C beta-lactamase inhibitor is also included to inhibit the resident Pseudomonas AmpC enzyme. A serial titration of the metallo-β-lactamase inhibitor was included and the concentration of metallo-β-lactamase inhibitor which restores susceptibility of the strain to the included antibiotic was recorded. That concentration of metallo-β-lactamase inhibitor was then compared between the two strains to determine the fold difference between the efflux+(MB9798) and efflux−(MB9799) strains, which indicates n the extent to which the MBLi is subject to efflux.

[9] = system: P. aeruginosa MB9799 (efflux mutant, IMP-1); experiment: Efflux: concentration of MBL inhibitor restoring susceptibility to imipenem (MITC95), efflux− strain; format: cell-based, Pseudomonas aeruginosa; details: imipenem at 2 μg/mL in the presence of a class A, C, D serine β-lactamase inhibitor closely related to relebactam
Description: as §5, §6, §7

NDM-1, sequence (C7C422 29-270, looked up, species assumed): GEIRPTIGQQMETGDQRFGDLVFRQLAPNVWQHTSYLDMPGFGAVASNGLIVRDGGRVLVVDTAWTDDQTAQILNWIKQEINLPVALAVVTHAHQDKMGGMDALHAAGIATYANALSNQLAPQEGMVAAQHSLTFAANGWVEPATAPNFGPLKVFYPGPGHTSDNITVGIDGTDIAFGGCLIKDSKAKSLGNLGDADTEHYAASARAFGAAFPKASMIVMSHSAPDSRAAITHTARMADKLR

## NCC(CN)NS(=O)(=O)c1ccc(N2CCCn3ccnc32)c(-c2nn[nH]n2)c1S(N)(=O)=O [Example 11, N1-(1,3-diaminopropan-2-yl)-4-(6,7-dihydroimidazo[1,2-a]pyrimidin-8(5H)-yl)-3-(2H-tetrazol-5-yl)benzene-1,2-disulfonamide]
[1]
  IC50: 1.95 nM
[2]
  IC50: 4.55 nM
[3]
  IC50: 1.26 nM
[4]
  IC50: 3.71 nM
[5]
  CLB30016 E.coli MITC95 NDM: 0.20 µM
[6]
  IHMA599644 K.pneumoniae MITC95 uM VIM: 1.56 µM
[7]
  CL5741 S.marcescens MITC95 uM IMP: 0.78 µM
[8]
  MB9798 MITC95 P. aeruginosa Efflux WT: 2.34 µM
[9]
  MB9799 MITC95 P. aeruginosa Efflux Mutant: 1.17 µM

## C[C@H](N)CNS(=O)(=O)c1ccc(N2CCCn3ccnc32)c(-c2nn[nH]n2)c1S(N)(=O)=O [Example 14, (S)-N1-(2-aminopropyl)-4-(6,7-dihydroimidazo[1,2-a]pyrimidin-8(5H)-yl)-3-(2H-tetrazol-5-yl)benzene-1,2-disulfonamide]
[1]
  IC50: 1.61 nM
[2]
  IC50: 6.32 nM
[3]
  IC50: 0.97 nM
[4]
  IC50: 2.6 nM
[5]
  CLB30016 E.coli MITC95 NDM: 0.10 µM
[6]
  IHMA599644 K.pneumoniae MITC95 uM VIM: 1.56 µM
[7]
  CL5741 S.marcescens MITC95 uM IMP: 0.39 µM
[8]
  MB9798 MITC95 P. aeruginosa Efflux WT: 3.13 µM
[9]
  MB9799 MITC95 P. aeruginosa Efflux Mutant: 0.78 µM

## NC[C@@H](O)CNS(=O)(=O)c1ccc(N2CC[C@H](CO)n3ccnc32)c(-c2nn[nH]n2)c1S(N)(=O)=O [Example 40, N1-((R)-3-amino-2-hydroxypropyl)-4-((R)-5-(hydroxymethyl)-6,7-dihydroimidazo[1,2-a]pyrimidin-8(5H)-yl)-3-(2H-tetrazol-5-yl)benzene-1,2-disulfonamide]
[1]
  IC50: 1.15 nM
[2]
  IC50: 5 nM
[3]
  IC50: 0.27 nM
[4]
  IC50: 2.09 nM
[5]
  CLB30016 E.coli MITC95 NDM: 0.10 µM
[6]
  IHMA599644 K.pneumoniae MITC95 uM VIM: 1.56 µM
[7]
  CL5741 S.marcescens MITC95 uM IMP: 0.39 µM
[8]
  MB9798 MITC95 P. aeruginosa Efflux WT: 1.56 µM
[9]
  MB9799 MITC95 P. aeruginosa Efflux Mutant: 0.78 µM

## NC[C@@H](O)CNS(=O)(=O)c1ccc(N2CCc3nc(N)[nH]c3C2)c(-c2nn[nH]n2)c1S(N)(=O)=O [Example 3, (R)—N^1-(3-amino-2-hydroxypropyl)-4-(2-amino-3,4,6,7-tetrahydro-5H-imidazo[4,5-c]pyridin-5-yl)-3-(2H-tetrazol-5-yl)benzene-1,2-disulfonamide]
[1]
  IC50: 2.23 nM
[2]
  IC50: 5.72 nM
[3]
  IC50: 22.6 nM
[4]
  IC50: 72.8 nM
[5]
  CLB30016 E.coli MITC95 NDM: 0.78 µM
[6]
  IHMA599644 K.pneumoniae MITC95 uM VIM: 6.25 µM
[7]
  CL5741 S.marcescens MITC95 uM IMP: 3.13 µM
[8]
  MB9798 MITC95 P. aeruginosa Efflux WT: 6.25 µM
[9]
  MB9799 MITC95 P. aeruginosa Efflux Mutant: 1.56 µM

## NS(=O)(=O)c1c(S(=O)(=O)N[C@@H]2CCNC2)ccc(N2CCn3ncnc3C2)c1-c1nn[nH]n1 [Example 1, (R)-4-(5,6-dihydro-[1,2,4]triazolo[1,5-a]pyrazin-7(8H)-yl)-N′-(pyrrolidin-3-yl)-3-(2H-tetrazol-5-yl)benzene-1,2-disulfonamide]
[1]
  IC50: 1.57 nM
[2]
  IC50: 4.03 nM
[3]
  IC50: 0.29 nM
[4]
  IC50: 0.99 nM
[5]
  CLB30016 E.coli MITC95 NDM: 3.13 µM
[6]
  IHMA599644 K.pneumoniae MITC95 uM VIM: 6.25 µM
[7]
  CL5741 S.marcescens MITC95 uM IMP: 1.56 µM
[8]
  MB9798 MITC95 P. aeruginosa Efflux WT: 6.25 µM
[9]
  MB9799 MITC95 P. aeruginosa Efflux Mutant: 1.56 µM

## NS(=O)(=O)c1c(S(=O)(=O)N[C@@H]2CCNC2)ccc(N2CCc3ncccc32)c1-c1nnn[nH]1 [Example 34, 4-(2,3-dihydro-1H-pyrrolo[3,2-b]pyridin-1-yl)-N1-[(3R)-pyrrolidin-3-yl]-3-(1H-tetrazol-5-yl)benzene-1,2-disulfonamide]
[1]
  IC50: 0.29 nM
[2]
  IC50: 5.21 nM
[3]
  IC50: 0.25 nM
[4]
  IC50: 0.81 nM
[5]
  CLB30016 E.coli MITC95 NDM: 0.39 µM
[6]
  IHMA599644 K.pneumoniae MITC95 uM VIM: 3.13 µM
[7]
  CL5741 S.marcescens MITC95 uM IMP: 1.56 µM
[8]
  MB9798 MITC95 P. aeruginosa Efflux WT: 12.50 µM
[9]
  MB9799 MITC95 P. aeruginosa Efflux Mutant: 1.56 µM

## Cc1cc2c(c(C)n1)CCN2c1ccc(S(=O)(=O)N[C@@H]2CCNC2)c(S(N)(=O)=O)c1-c1nnn[nH]1 [Example 27, 4-(4,6-dimethyl-2,3-dihydro-1H-pyrrolo[3,2-c]pyridin-1-yl)-N1-[(3R)-pyrrolidin-3-yl]-3-(1H-tetrazol-5-yl)benzene-1,2-disulfonamide]
[1]
  IC50: 5 nM
[2]
  IC50: 84 nM
[3]
  IC50: 0.14 nM
[4]
  IC50: 1.37 nM
[5]
  CLB30016 E.coli MITC95 NDM: 1.56 µM
[6]
  IHMA599644 K.pneumoniae MITC95 uM VIM: 3.13 µM
[7]
  CL5741 S.marcescens MITC95 uM IMP: 6.25 µM
[8]
  MB9798 MITC95 P. aeruginosa Efflux WT: 50.00 µM
[9]
  MB9799 MITC95 P. aeruginosa Efflux Mutant: 3.13 µM

## NS(=O)(=O)c1c(S(=O)(=O)N[C@@H]2CCNC2)ccc(N2CCc3cccnc3C2)c1-c1nnn[nH]1 [Example 23, 4-(5,8-dihydro-1,7-naphthyridin-7(6H)-yl)-N1-[(3R)-pyrrolidin-3-yl]-3-(1H-tetrazol-5-yl)benzene-1,2-disulfonamide]
[1]
  IC50: 24.3 nM
[2]
  IC50: 43.9 nM
[3]
  IC50: 21 nM
[4]
  IC50: 39 nM
[5]
  CLB30016 E.coli MITC95 NDM: 3.13 µM
[6]
  IHMA599644 K.pneumoniae MITC95 uM VIM: 12.50 µM
[7]
  CL5741 S.marcescens MITC95 uM IMP: 12.50 µM
[8]
  MB9798 MITC95 P. aeruginosa Efflux WT: 50.00 µM
[9]
  MB9799 MITC95 P. aeruginosa Efflux Mutant: 6.25 µM

## NS(=O)(=O)c1c(S(=O)(=O)N[C@@H]2CCNC2)ccc(N2CCc3ccncc32)c1-c1nnn[nH]1 [Example 33, 4-(2,3-dihydro-1H-pyrrolo[2,3-c]pyridin-1-yl)-N1-[(3R)-pyrrolidin-3-yl]-3-(1H-tetrazol-5-yl)benzene-1,2-disulfonamide]
[1]
  IC50: 0.3 nM
[2]
  IC50: 1.73 nM
[3]
  IC50: 0.26 nM
[4]
  IC50: 0.72 nM
[5]
  CLB30016 E.coli MITC95 NDM: 1.56 µM
[6]
  IHMA599644 K.pneumoniae MITC95 uM VIM: 3.13 µM
[7]
  CL5741 S.marcescens MITC95 uM IMP: 3.13 µM
[8]
  MB9798 MITC95 P. aeruginosa Efflux WT: 6.25 µM
[9]
  MB9799 MITC95 P. aeruginosa Efflux Mutant: 1.56 µM
